Experimental data published in article PMC6753678, “Fueling Open Innovation for Malaria Transmission-Blocking Drugs: Hundreds of Molecules Targeting Early Parasite Mosquito Stages” (Frontiers in Microbiology, 2019).

Columns and labels:
[1] = test system: P. falciparum female gametocytes; design: method as in Miguel-Blanco et al 2017; conditions: TCAMS library screen; ref Miguel-Blanco et al 2017; read-out: Pf FGAA IC50; cited from earlier work
[2] = test system: P. falciparum female gametocytes; experiment: P. falciparum female gametogenesis assay (Pf FGAA); conditions: 1: YES; 0: NO
[3] = test system: HepG2 cells; conditions: HepG2 value reported with Pf FGAA screen; ref Miguel-Blanco et al 2017; cited from earlier work

Row | Compound | IC50 [1] | Is compound selective in assay? Pf FGAA active? [2] | HepG2 cytoxicity (Pf FGAA screen) [3]
1 | O=C(O)C(F)(F)F.O=S(=O)(NCCN1CCCC1)c1ccc(-c2cccc(CNC3Cc4ccccc4C3)c2)cc1 [TCMDC-132215] | 2.54 µM | 0 (0: NO) | 6.03 µM
2 | O=C(O)C(F)(F)F.O=S(=O)(NCCN1CCCC1)c1ccc(-c2cccc(CNC3Cc4ccccc4C3)c2)s1 [TCMDC-132217] | 1.29 µM | 0 (0: NO) | 5.50 µM
3 | CN1CCC(NCc2cccc(-c3ccc(S(=O)(=O)NCc4ccccc4)c(F)c3)c2)CC1.O=C(O)C(F)(F)F [TCMDC-132219] | 2.63 µM | 0 (0: NO) | 5.13 µM
4 | O=C(O)C(F)(F)F.O=S(=O)(NCCN1CCCC1)c1ccc(-c2ccc(CNC3Cc4ccccc4C3)cc2)s1 [TCMDC-132234] | 2.27 µM | 0 (0: NO) | 5.83 µM
5 | Cc1cc(-c2ccc(CNC3Cc4ccccc4C3)cc2)ccc1S(=O)(=O)NCCN1CCCC1.O=C(O)C(F)(F)F [TCMDC-132243] | 1.83 µM | 0 (0: NO) | 5.31 µM
6 | COc1ccc(CNC2CCN(C)CC2)cc1-c1ccc(S(=O)(=O)NCc2ccccc2)s1.O=C(O)C(F)(F)F [TCMDC-132253] | 1.75 µM | 0 (0: NO) | 5.50 µM
7 | COc1ccc(CNC2Cc3ccccc3C2)cc1-c1ccc(S(=O)(=O)NCCN2CCCC2)s1.O=C(O)C(F)(F)F [TCMDC-132258] | 1.39 µM | 0 (0: NO) | 5.31 µM
8 | COc1ccc(CNC2Cc3ccccc3C2)cc1-c1ccc(S(=O)(=O)NCCN2CCCC2)c(F)c1.O=C(O)C(F)(F)F [TCMDC-132266] | 1.95 µM | 0 (0: NO) | 6.03 µM
9 | Cl.N[C@@H](CCNC1CCN(c2cccc(C(F)(F)F)c2)CC1)Cc1ccc(F)c(F)c1 [TCMDC-132301] | 0.44 µM | 0 (0: NO) | 3.76 µM
10 | Cc1ccc(Cn2nc(N3CCNCC3)ccc2=O)cc1NC(=O)Nc1ccc(-c2ccccc2)cc1.O=C(O)C(F)(F)F [TCMDC-132580] | 1.94 µM | 0 (0: NO) | 7.42 µM
11 | O=S(=O)(Nc1cccc(F)c1CNCc1ccccn1)c1ccc(Cl)c(Cl)c1 [TCMDC-132598] | 1.36 µM | 1 (1: YES) | 20.42 µM
12 | Cc1cccc2nc(-c3ccc(-c4ccc(CNCc5ccc(CN)cc5)cc4)cc3)[nH]c12.O=C(O)C(F)(F)F [TCMDC-132813] | 2.16 µM | 0 (0: NO) | 18.09 µM
13 | NCc1ccc(CNCc2ccc(-c3ccc(-c4nc5cc(C(F)(F)F)ccc5[nH]4)s3)cc2)cc1.O=C(O)C(F)(F)F [TCMDC-132814] | 1.02 µM | 0 (0: NO) | 8.32 µM
14 | CNCCNCc1ccc(-c2ccc(-c3nc4cc(C(F)(F)F)ccc4[nH]3)s2)cc1.O=C(O)C(F)(F)F [TCMDC-132838] | 1.28 µM | 0 (0: NO) | 6.10 µM
15 | FC(F)(F)c1ccc2[nH]c(-c3ccc(-c4ccc(CNCCN5CCNCC5)cc4)cc3)nc2c1.O=C(O)C(F)(F)F [TCMDC-132865] | 1.41 µM | 1 (1: YES) | 16.43 µM
16 | Cc1cccc2nc(-c3ccc(-c4ccc(CNCCN5CCNCC5)cc4)s3)[nH]c12.O=C(O)C(F)(F)F [TCMDC-132870] | 1.53 µM | 0 (0: NO) | 14.29 µM
17 | FC(F)(F)c1ccc2[nH]c(-c3cccc(-c4cccc(CNCCN5CCNCC5)c4)c3)nc2c1.O=C(O)C(F)(F)F [TCMDC-132871] | 1.22 µM | 0 (0: NO) | 6.61 µM
18 | CCCN(CC1CC1)c1ncc(-c2cccc(CNCCC3CCCN3C)c2)cn1 (stereo not drawn) [TCMDC-133142] | 2.18 µM | 0 (0: NO) | 3.09 µM

Row | Compound | IC50 [1] | Is compound selective in assay? Pf FGAA active? [2] | HepG2 cytoxicity (Pf FGAA screen) [3]
19 | CN(CCc1ccccc1)c1ncc(-c2cccc(CNCCC3CCCN3C)c2)cn1 (stereo not drawn) [TCMDC-133143] | 1.36 µM | 0 (0: NO) | 2.88 µM
20 | CN1CCCC1CCNCc1cccc(-c2cnc(N3CCCC(C)(C)C3)nc2)c1 (stereo not drawn) [TCMDC-133144] | 1.67 µM | 0 (0: NO) | 4.63 µM
21 | O=C(Nc1cccc(-c2cccc(-c3nc4cc(C(F)(F)F)ccc4[nH]3)c2)c1)Nc1ccc(F)c(F)c1F [TCMDC-133229] | 1.4 µM | 0 (0: NO) | 3.43 µM
22 | COc1ccccc1C1CCN(C2CCC(NC(=O)c3ccc4[nH]c(-c5ccc(C)cc5)nc4c3)CC2)CC1 (stereo not drawn) [TCMDC-133556] | 2.49 µM | 0 (0: NO) | 3.99 µM
23 | CN1CCC(N2CCN(Cc3cccc(-c4ccc(-c5nc6cc(C(F)(F)F)ccc6[nH]5)cc4)c3)CC2)CC1.O=C(O)C(F)(F)F [TCMDC-133842] | 1.09 µM | 0 (0: NO) | 2.44 µM
24 | CN1CCCC(CN2CCN(Cc3cccc(-c4ccc(-c5nc6cc(C(F)(F)F)ccc6[nH]5)cc4)c3)CC2)C1.O=C(O)C(F)(F)F (stereo not drawn) [TCMDC-133882] | 1.3 µM | 0 (0: NO) | 4.07 µM
25 | O=C(O)C(F)(F)F.c1cc(CN2CCC(CCN3CCCCC3)CC2)cc(-c2csc(-c3nc4ccccc4[nH]3)c2)c1 [TCMDC-133919] | 2.11 µM | 0 (0: NO) | 6.04 µM
26 | Cl.NC1CCN(CCc2ccc(NS(=O)(=O)c3ccc(-c4ccccc4)cc3)cc2)CC1 [TCMDC-134085] | 0.75 µM | 0 (0: NO) | 7.17 µM
27 | Cn1c(Nc2cc(C(C)(C)C)on2)nc2cc(Nc3ccnc(Nc4cccc(S(=O)(=O)N5CCOCC5)c4)n3)ccc21 [TCMDC-134098] | 1.19 µM | 0 (0: NO) | 8.13 µM
28 | Cc1ccc(C(C(=O)Nc2ccc(N3CCNCC3)c(Cl)c2)c2ccccc2)cc1 (stereo not drawn) [TCMDC-134292] | 0.66 µM | 1 (1: YES) | 11.89 µM
29 | CC(C)c1ccc(CN2CCC(CNC(=O)c3cc(-c4cccc(C(F)(F)F)c4)cs3)C2)cc1.O=C(O)C(F)(F)F (stereo not drawn) [TCMDC-134435] | 1.3 µM | 0 (0: NO) | 5.13 µM
30 | CC(C)c1ccc(CN2CCC(CNC(=O)c3cc(-c4ccccc4F)cs3)C2)cc1.O=C(O)C(F)(F)F (stereo not drawn) [TCMDC-134436] | 1.08 µM | 0 (0: NO) | 9.14 µM
31 | CC(C)c1ccc(CN2CCC(CNC(=O)c3cc(-c4cccc(Cl)c4)cs3)C2)cc1.O=C(O)C(F)(F)F (stereo not drawn) [TCMDC-134438] | 0.6 µM | 1 (1: YES) | 6.53 µM
32 | COc1cccc(-c2csc(C(=O)NCC3CCN(Cc4ccc(C(C)C)cc4)C3)c2)c1.O=C(O)C(F)(F)F (stereo not drawn) [TCMDC-134439] | 1.37 µM | 0 (0: NO) | 11.51 µM
33 | CC(C)c1ccc(CN2CCC(CNC(=O)c3cc(-c4ccc(N(C)C)cc4)cs3)C2)cc1.O=C(O)C(F)(F)F (stereo not drawn) [TCMDC-134440] | 0.71 µM | 0 (0: NO) | 5.85 µM
34 | CC(C)(C)c1ccc(CN2CCC(CNC(=O)c3cc(-c4cccc(F)c4)cs3)C2)cc1.O=C(O)C(F)(F)F (stereo not drawn) [TCMDC-134444] | 1.32 µM | 0 (0: NO) | 6.61 µM
35 | CCc1ccccc1-c1csc(C(=O)NCC2CCN(Cc3ccc(C(C)(C)C)cc3)C2)c1.O=C(O)C(F)(F)F (stereo not drawn) [TCMDC-134448] | 1.2 µM | 0 (0: NO) | 7.67 µM
